Measurements reported in PubChem BioAssay (NCI).
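Step 1: Grow cells in 96-well plates. Step 2: Expose to compound for 48 hours at 5 concentrations. Step 3: Interpolate endpoints linearly; if unreached, use highest concentration. GI50 = concentration required for 50% inhibition of growth. The concentration for full growth arrest is given as TGI.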

How the values were obtained:
Experiment in all cases: DTP human tumour cell line panel, 48 h
786-0 renal = test system: 786-0 renal
A549 NSCLC = test system: A549 NSCLC
ACHN renal = test system: ACHN renal
BT-549 breast = test system: BT-549 breast
CAKI-1 renal = test system: CAKI-1 renal
COLO 205 colon = test system: COLO 205 colon
DU-145 prostate = test system: DU-145 prostate
EKVX NSCLC = test system: EKVX NSCLC
HCC-2998 colon = test system: HCC-2998 colon
HCT-116 colon = test system: HCT-116 colon
HCT-15 colon = test system: HCT-15 colon
HL-60(TB) leukemia = test system: HL-60(TB) leukemia
HOP-62 NSCLC = test system: HOP-62 NSCLC
HOP-92 NSCLC = test system: HOP-92 NSCLC
HS 578T breast = test system: HS 578T breast
HT29 colon = test system: HT29 colon
IGROV1 ovarian = test system: IGROV1 ovarian
K-562 leukemia = test system: K-562 leukemia
KM12 colon = test system: KM12 colon
LOX IMVI melanoma = test system: LOX IMVI melanoma
MALME-3M melanoma = test system: MALME-3M melanoma
MCF7 breast = test system: MCF7 breast
MDA-MB-231 breast = test system: MDA-MB-231 breast
MDA-MB-435 = test system: MDA-MB-435
MOLT-4 leukemia = test system: MOLT-4 leukemia
NCI-H226 lung = test system: NCI-H226 lung
NCI-H23 lung = test system: NCI-H23 lung
NCI-H460 lung = test system: NCI-H460 lung
NCI-H522 lung = test system: NCI-H522 lung
OVCAR-4 ovarian = test system: OVCAR-4 ovarian
OVCAR-5 ovarian = test system: OVCAR-5 ovarian
OVCAR-8 ovarian = test system: OVCAR-8 ovarian
PC-3 prostate = test system: PC-3 prostate
RPMI-8226 leukemia = test system: RPMI-8226 leukemia
RXF 393 renal = test system: RXF 393 renal
SF-268 CNS = test system: SF-268 CNS
SF-295 CNS = test system: SF-295 CNS
SF-539 CNS = test system: SF-539 CNS
SK-MEL-2 melanoma = test system: SK-MEL-2 melanoma
SK-MEL-28 melanoma = test system: SK-MEL-28 melanoma
SK-MEL-5 melanoma = test system: SK-MEL-5 melanoma
SK-OV-3 ovarian = test system: SK-OV-3 ovarian
SN12C renal = test system: SN12C renal
SNB-19 CNS = test system: SNB-19 CNS
SNB-75 CNS = test system: SNB-75 CNS
SR leukemia = test system: SR leukemia
SW-620 colon = test system: SW-620 colon
T-47D breast = test system: T-47D breast
TK-10 renal = test system: TK-10 renal
U251 CNS = test system: U251 CNS
UACC-257 melanoma = test system: UACC-257 melanoma
UACC-62 melanoma = test system: UACC-62 melanoma
UO-31 renal = test system: UO-31 renal

In the case of `COc1cccc2c1-c1ccccc1C2=O`, the GI50 (786-0 renal) was 3.15 µM, the TGI (786-0 renal) was greater than 100 µM and the GI50 (A549 NSCLC) was 2.65 µM. It also gave a TGI (A549 NSCLC) greater than 100 µM, a GI50 (ACHN renal) of 0.783 µM and a TGI (ACHN renal) greater than 100 µM. It also gave a GI50 (BT-549 breast) of 1.17 µM, a TGI (BT-549 breast) greater than 100 µM and a GI50 (CAKI-1 renal) of 0.543 µM. The TGI (CAKI-1 renal) was greater than 100 µM, the GI50 (COLO 205 colon) was 1.91 µM and the TGI (COLO 205 colon) was 4.62 µM. It also gave a GI50 (DU-145 prostate) of 2.9 µM, a TGI (DU-145 prostate) greater than 100 µM and a GI50 (EKVX NSCLC) of 9.49 µM. For the same molecule, the TGI (EKVX NSCLC) was greater than 100 µM, the GI50 (HCC-2998 colon) was 3.35 µM and the TGI (HCC-2998 colon) was 47.1 µM. It also gave a GI50 (HCT-116 colon) of 3.14 µM, a TGI (HCT-116 colon) of 17.4 µM and a GI50 (HCT-15 colon) of 2.71 µM. The TGI (HCT-15 colon) was greater than 100 µM, the GI50 (HL-60(TB) leukemia) was 2.19 µM and the TGI (HL-60(TB) leukemia) was 6.37 µM. The GI50 (HOP-62 NSCLC) was 1.65 µM, the TGI (HOP-62 NSCLC) was greater than 100 µM and the GI50 (HOP-92 NSCLC) was 4.6 µM. It also gave a TGI (HOP-92 NSCLC) of 85.2 µM, a GI50 (HS 578T breast) of 0.815 µM and a TGI (HS 578T breast) greater than 100 µM. It also gave a GI50 (HT29 colon) of 3.03 µM, a TGI (HT29 colon) of 12.5 µM and a GI50 (IGROV1 ovarian) of 1.46 µM. The TGI (IGROV1 ovarian) was greater than 100 µM, the GI50 (K-562 leukemia) was 0.801 µM and the TGI (K-562 leukemia) was greater than 100 µM. It also gave a GI50 (KM12 colon) of 3.42 µM, a TGI (KM12 colon) greater than 100 µM and a GI50 (LOX IMVI melanoma) of 2.24 µM. It also gave a TGI (LOX IMVI melanoma) greater than 100 µM, a GI50 (MALME-3M melanoma) of 6.54 µM and a TGI (MALME-3M melanoma) greater than 100 µM. It also gave a GI50 (MCF7 breast) of 1.14 µM, a TGI (MCF7 breast) greater than 100 µM and a GI50 (MDA-MB-231 breast) of 3.25 µM. It also gave a TGI (MDA-MB-231 breast) of 48.3 µM, a GI50 (MDA-MB-435) of 0.225 µM and a TGI (MDA-MB-435) of 0.79 µM. For the same molecule, the GI50 (MOLT-4 leukemia) was 4.25 µM, the TGI (MOLT-4 leukemia) was greater than 100 µM and the GI50 (NCI-H226 lung) was 1.19 µM. For the same molecule, the TGI (NCI-H226 lung) was greater than 100 µM, the GI50 (NCI-H23 lung) was 4.2 µM and the TGI (NCI-H23 lung) was greater than 100 µM. The GI50 (NCI-H460 lung) was 0.628 µM, the TGI (NCI-H460 lung) was 11.5 µM and the GI50 (NCI-H522 lung) was 0.276 µM. It also gave a TGI (NCI-H522 lung) of 4.33 µM, a GI50 (OVCAR-4 ovarian) of 2.69 µM and a TGI (OVCAR-4 ovarian) greater than 100 µM. It also gave a GI50 (OVCAR-5 ovarian) of 5.32 µM, a TGI (OVCAR-5 ovarian) greater than 100 µM and a GI50 (OVCAR-8 ovarian) of 3.33 µM. It also gave a TGI (OVCAR-8 ovarian) greater than 100 µM, a GI50 (PC-3 prostate) of 2.22 µM and a TGI (PC-3 prostate) greater than 100 µM. It also gave a GI50 (RPMI-8226 leukemia) of 3.7 µM, a TGI (RPMI-8226 leukemia) greater than 100 µM and a GI50 (RXF 393 renal) of 0.329 µM. For the same molecule, the TGI (RXF 393 renal) was 49.2 µM, the GI50 (SF-268 CNS) was 3.17 µM and the TGI (SF-268 CNS) was greater than 100 µM. For the same molecule, the GI50 (SF-295 CNS) was 0.352 µM, the TGI (SF-295 CNS) was greater than 100 µM and the GI50 (SF-539 CNS) was 1.31 µM. It also gave a TGI (SF-539 CNS) of 5.76 µM, a GI50 (SK-MEL-2 melanoma) of 2.49 µM and a TGI (SK-MEL-2 melanoma) greater than 100 µM. The GI50 (SK-MEL-28 melanoma) was 3.85 µM, the TGI (SK-MEL-28 melanoma) was greater than 100 µM and the GI50 (SK-MEL-5 melanoma) was 2.31 µM. For the same molecule, the TGI (SK-MEL-5 melanoma) was 13.5 µM, the GI50 (SK-OV-3 ovarian) was 1.03 µM and the TGI (SK-OV-3 ovarian) was 7.49 µM. It also gave a GI50 (SN12C renal) of 4.85 µM, a TGI (SN12C renal) greater than 100 µM and a GI50 (SNB-19 CNS) of 2.52 µM. The TGI (SNB-19 CNS) was greater than 100 µM, the GI50 (SNB-75 CNS) was 0.431 µM and the TGI (SNB-75 CNS) was greater than 100 µM. The GI50 (SR leukemia) was 3.66 µM, the TGI (SR leukemia) was greater than 100 µM and the GI50 (SW-620 colon) was 2.09 µM. It also gave a TGI (SW-620 colon) greater than 100 µM, a GI50 (T-47D breast) of 6.7 µM and a TGI (T-47D breast) greater than 100 µM. It also gave a GI50 (TK-10 renal) of 9.8 µM, a TGI (TK-10 renal) greater than 100 µM and a GI50 (U251 CNS) of 2.9 µM. It also gave a TGI (U251 CNS) greater than 100 µM, a GI50 (UACC-257 melanoma) greater than 100 µM and a TGI (UACC-257 melanoma) greater than 100 µM. For the same molecule, the GI50 (UACC-62 melanoma) was 0.467 µM, the TGI (UACC-62 melanoma) was greater than 100 µM and the GI50 (UO-31 renal) was 4.46 µM. The TGI (UO-31 renal) was greater than 100 µM.
